Calls of active or inactive are those of the source.
What was measured:
[1] = MIN6 cell viability loss – mouse insulinoma, cytotoxicity control, dose response (AID 2122); type: functional;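 also: confirmatory high-throughput counterscreen run to flag cytotoxic compounds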
[2] = molecular target: T1, Histone-lysine N-methyltransferase NSD2 (Homo sapiens, UniProt O96028); type: biochemical
T1 sequence (O96028 whole entry): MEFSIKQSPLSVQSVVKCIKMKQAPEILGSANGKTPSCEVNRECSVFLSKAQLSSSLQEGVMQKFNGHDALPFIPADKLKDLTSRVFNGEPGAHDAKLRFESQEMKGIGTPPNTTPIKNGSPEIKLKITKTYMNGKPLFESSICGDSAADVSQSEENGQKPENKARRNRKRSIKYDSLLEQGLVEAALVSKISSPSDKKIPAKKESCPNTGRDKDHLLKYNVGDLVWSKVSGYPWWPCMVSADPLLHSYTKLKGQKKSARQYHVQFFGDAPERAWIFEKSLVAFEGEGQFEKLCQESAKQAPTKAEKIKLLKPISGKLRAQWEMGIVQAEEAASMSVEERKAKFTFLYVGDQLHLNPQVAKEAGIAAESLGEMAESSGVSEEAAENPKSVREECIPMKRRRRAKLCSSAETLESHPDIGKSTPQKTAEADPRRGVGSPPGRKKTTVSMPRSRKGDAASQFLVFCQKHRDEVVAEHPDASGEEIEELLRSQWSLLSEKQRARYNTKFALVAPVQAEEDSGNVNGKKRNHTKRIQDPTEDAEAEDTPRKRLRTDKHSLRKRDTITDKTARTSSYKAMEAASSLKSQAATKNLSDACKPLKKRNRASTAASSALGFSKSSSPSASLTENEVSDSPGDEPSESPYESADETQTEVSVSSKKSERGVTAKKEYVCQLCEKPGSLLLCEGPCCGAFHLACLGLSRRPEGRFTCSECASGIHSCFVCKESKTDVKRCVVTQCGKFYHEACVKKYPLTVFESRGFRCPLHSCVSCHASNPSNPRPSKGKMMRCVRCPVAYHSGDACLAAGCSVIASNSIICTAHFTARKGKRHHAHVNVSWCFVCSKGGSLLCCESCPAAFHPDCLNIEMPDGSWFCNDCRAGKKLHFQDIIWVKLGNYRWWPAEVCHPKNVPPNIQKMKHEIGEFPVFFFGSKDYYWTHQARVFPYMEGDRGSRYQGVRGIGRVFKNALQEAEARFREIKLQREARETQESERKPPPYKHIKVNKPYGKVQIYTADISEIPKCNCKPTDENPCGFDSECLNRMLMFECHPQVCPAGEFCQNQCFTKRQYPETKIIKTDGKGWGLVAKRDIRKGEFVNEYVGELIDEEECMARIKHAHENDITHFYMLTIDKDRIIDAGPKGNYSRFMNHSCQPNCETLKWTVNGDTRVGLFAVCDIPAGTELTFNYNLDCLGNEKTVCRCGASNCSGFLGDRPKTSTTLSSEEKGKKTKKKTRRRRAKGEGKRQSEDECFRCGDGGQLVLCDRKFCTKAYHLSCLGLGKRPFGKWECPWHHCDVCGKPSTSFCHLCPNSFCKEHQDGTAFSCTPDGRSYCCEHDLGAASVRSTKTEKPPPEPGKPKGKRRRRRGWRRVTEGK

[3] = decrease of insulin promoter-GFP reporter – imaging, high-content screening, mouse beta cells (AID 1628); type: functional; conditions: MIN6
INS1 = assay: INS-1E survival protection against cytokine death – cell-based, luminescence, retest, dose response (AID 449756); type: functional; conditions: Rattus norvegicus;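 also: cell death triggered by IL-1 beta plus TNF-alpha plus IFN-gamma mixture; protective hits raise ATP signal compared with cytokine alone wells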
[4] = molecular target: T2, Adenosylmethionine-8-amino-7-oxononanoate aminotransferase (Mycobacterium tuberculosis, UniProt P9WQ81); assay: Mycobacterium tuberculosis BioA enzyme inhibitor Measured in Biochemical System Using Plate Reader - 2163-02_Inhibitor_Dose_CherryPick_Activity.; type: functional, Mycobacterium tuberculosis UT205
T2 sequence (P9WQ81 whole entry): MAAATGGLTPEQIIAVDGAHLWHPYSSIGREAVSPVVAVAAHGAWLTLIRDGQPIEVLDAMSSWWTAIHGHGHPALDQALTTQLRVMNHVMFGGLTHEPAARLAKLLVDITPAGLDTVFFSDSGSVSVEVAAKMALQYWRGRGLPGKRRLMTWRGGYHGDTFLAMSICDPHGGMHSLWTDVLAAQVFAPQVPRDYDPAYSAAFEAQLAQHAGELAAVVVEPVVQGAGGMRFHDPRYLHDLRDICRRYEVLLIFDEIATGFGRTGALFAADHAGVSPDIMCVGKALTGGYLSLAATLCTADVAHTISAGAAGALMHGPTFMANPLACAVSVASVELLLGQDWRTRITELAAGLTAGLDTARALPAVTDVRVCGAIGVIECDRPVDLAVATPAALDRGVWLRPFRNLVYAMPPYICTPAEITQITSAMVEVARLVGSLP

Vero = assay: viability of Vero cells under compound – cytotoxicity control for flavivirus capping enzyme inhibitors (AID 588742); type: functional; conditions: Chlorocebus sabaeus
[5] = molecular target: T3, Small ubiquitin-related modifier 1 (Homo sapiens, UniProt P63165); assay: SUMO1 protein interaction blockers, potency – biochemical, fluorescence polarization, uHTS hits, dose response (AID 624382); type: functional; conditions: read-out: IC50_Mean
[6] = molecular target: T3, Small ubiquitin-related modifier 1; assay: SUMO1 protein-protein binding blockers, potency – biochemical, FRET, dose response (AID 624383); type: functional; conditions: read-out: IC50_Mean
[7] = molecular target: T4, Endoribonuclease toxin MazF (Escherichia coli K-12, UniProt P0AE70); assay: substrate-only fluorescence increase artefacts – biochemical, single-stranded RNase substrate, counter-screen for MazEF activator project, dose response (AID 588502); type: functional
T4 sequence (P0AE70 whole entry): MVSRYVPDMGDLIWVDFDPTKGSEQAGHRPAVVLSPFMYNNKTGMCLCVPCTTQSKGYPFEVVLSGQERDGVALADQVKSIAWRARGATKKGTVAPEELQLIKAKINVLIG

[8] = molecular target: T4, Endoribonuclease toxin MazF; assay: activation of MazEF endoribonuclease cleavage – biochemical, fluorescence, single-stranded RNA substrate, uHTS hits, dose response (AID 588481); type: functional
Protein Wnt-3a = Protein Wnt-3a (Mus musculus, UniProt P27467); assay: antagonism of Wnt3a pathway luciferase reporter – Wnt-LIGHT cells, luminescence, selectivity assay for Gli-SUFU antagonist project, dose response (AID 651570); type: functional; conditions: read-out: IC50_Mean;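 also: Wnt-LIGHT reporter cells stimulated with conditioned medium from Wnt3a-producing cells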
Melanocortin receptor 4 = Melanocortin receptor 4 (Homo sapiens, UniProt P32245); type: functional, cell-based;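 also: Cell-based assay with luminescence read-out, confirmatory dose-response testing for agonist activity of biased ligands at MC4R; human U2OS cells with tagged receptor and beta-arrestin; potency of agonists that increase receptor coupling to beta-arrestin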
[9] = luciferase reporter signal suppression in cells – H4 neuroglioma cells, luminescence, dose response (AID 1990); type: functional, cell-based
[10] = alpha-synuclein stem-loop luciferase translation blockers – H4 neuroglioma cells, luminescence, confirmation (AID 1988); type: functional, cell-based
[11] = Luminescence Cell-Based Dose Response HTS to Identify Inhibitors of 5'UTR Stem-Loop Driven Prion Protein mRNA Translation in H4 Neuroglioblastoma Cells. [Related pubchem assays: 1827 (Project Summary), 1813 (Primary HTS)]; type: functional
[12] = molecular target: T5, Probable nicotinate-nucleotide adenylyltransferase (Staphylococcus aureus (strain N315), UniProt P65502); type: functional, Staphylococcus aureus subsp. aureus N315; conditions: read-out: IC50_Mean;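 as to IC50 Mean: confirmatory dose-response retesting of NadD inhibitor hits first found in an ultra-high-throughput screen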
[13] = molecular target: T5, Probable nicotinate-nucleotide adenylyltransferase; type: functional, Staphylococcus aureus subsp. aureus N315
[14] = viability of uninfected HEp-2 cells – cell-based, HTS, cytotoxicity control for RSV inhibitor project, dose response (AID 2410); type: functional; conditions: human respiratory syncytial virus
[15] = microbe, parasite or virus in culture; type: functional; conditions: Mycobacterium tuberculosis
[16] = molecular target: Photoreceptor-specific nuclear receptor (Homo sapiens, UniProt Q9Y5X4); type: functional, cell-based;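 also: CHO-S cells with Gal4-NCOR and VP16-NR2E3 two-hybrid luciferase reporter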
Genome polyprotein = Genome polyprotein (dengue virus type 2, UniProt P29990); assay: flavivirus cap methylation enzyme inhibition – biochemical, confirmation dose response, primary screen (AID 588689); type: functional
[17] = molecular target: T6, Low molecular weight phosphotyrosine protein phosphatase (Homo sapiens, UniProt P24666); type: functional; conditions: read-out: IC50_Mean;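 also: Dose-response confirmation assay measuring inhibition of LMPTP enzyme activity by fluorescence intensity read-out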
T6 sequence (P24666 whole entry): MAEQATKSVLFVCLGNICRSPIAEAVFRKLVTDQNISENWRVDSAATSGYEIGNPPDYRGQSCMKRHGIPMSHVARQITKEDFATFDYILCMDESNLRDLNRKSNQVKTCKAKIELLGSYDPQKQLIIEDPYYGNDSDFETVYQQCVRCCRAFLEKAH

T3 sequence (P63165 whole entry): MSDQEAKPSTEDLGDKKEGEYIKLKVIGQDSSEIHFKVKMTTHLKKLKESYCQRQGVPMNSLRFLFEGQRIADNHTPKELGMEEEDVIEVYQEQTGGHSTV
Chain of Protein Wnt-3a (P27467 whole entry): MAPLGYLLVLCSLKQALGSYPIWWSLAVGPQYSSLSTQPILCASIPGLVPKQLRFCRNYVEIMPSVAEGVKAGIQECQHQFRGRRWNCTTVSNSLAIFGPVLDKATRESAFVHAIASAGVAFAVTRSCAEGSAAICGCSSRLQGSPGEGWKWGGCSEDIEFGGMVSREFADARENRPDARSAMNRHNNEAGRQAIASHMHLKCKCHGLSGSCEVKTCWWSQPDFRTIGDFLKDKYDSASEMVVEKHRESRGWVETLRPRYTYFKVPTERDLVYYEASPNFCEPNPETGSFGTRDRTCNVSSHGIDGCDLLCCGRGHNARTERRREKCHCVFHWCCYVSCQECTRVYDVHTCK
Chain of Melanocortin receptor 4 (P32245 whole entry): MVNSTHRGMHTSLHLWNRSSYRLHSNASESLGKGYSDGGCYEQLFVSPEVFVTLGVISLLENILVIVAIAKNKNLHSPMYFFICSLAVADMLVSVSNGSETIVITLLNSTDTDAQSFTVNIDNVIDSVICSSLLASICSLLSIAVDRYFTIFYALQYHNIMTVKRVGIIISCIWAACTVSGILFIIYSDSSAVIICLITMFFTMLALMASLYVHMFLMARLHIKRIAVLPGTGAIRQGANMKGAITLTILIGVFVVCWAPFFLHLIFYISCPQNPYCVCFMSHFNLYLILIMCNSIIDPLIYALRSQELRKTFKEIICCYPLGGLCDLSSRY
T5 sequence (P65502 whole entry): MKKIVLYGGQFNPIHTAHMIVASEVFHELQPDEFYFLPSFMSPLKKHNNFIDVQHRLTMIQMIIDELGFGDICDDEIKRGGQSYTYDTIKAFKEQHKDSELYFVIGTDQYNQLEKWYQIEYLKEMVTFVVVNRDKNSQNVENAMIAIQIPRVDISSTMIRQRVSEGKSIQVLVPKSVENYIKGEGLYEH
Chain of Photoreceptor-specific nuclear receptor (Q9Y5X4 whole entry, the tested form may be a part): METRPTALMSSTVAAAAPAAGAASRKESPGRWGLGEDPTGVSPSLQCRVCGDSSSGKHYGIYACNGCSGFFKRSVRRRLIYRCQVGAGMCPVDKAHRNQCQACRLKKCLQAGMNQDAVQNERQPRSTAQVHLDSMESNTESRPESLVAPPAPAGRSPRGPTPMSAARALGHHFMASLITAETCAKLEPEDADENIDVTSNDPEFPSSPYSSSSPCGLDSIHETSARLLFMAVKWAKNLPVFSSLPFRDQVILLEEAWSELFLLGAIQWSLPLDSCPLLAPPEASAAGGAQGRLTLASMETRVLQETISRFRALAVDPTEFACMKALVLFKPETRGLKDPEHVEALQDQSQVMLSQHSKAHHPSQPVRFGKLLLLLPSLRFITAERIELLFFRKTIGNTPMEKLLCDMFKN
Chain of Genome polyprotein (P29990 2492-3391 limits assumed): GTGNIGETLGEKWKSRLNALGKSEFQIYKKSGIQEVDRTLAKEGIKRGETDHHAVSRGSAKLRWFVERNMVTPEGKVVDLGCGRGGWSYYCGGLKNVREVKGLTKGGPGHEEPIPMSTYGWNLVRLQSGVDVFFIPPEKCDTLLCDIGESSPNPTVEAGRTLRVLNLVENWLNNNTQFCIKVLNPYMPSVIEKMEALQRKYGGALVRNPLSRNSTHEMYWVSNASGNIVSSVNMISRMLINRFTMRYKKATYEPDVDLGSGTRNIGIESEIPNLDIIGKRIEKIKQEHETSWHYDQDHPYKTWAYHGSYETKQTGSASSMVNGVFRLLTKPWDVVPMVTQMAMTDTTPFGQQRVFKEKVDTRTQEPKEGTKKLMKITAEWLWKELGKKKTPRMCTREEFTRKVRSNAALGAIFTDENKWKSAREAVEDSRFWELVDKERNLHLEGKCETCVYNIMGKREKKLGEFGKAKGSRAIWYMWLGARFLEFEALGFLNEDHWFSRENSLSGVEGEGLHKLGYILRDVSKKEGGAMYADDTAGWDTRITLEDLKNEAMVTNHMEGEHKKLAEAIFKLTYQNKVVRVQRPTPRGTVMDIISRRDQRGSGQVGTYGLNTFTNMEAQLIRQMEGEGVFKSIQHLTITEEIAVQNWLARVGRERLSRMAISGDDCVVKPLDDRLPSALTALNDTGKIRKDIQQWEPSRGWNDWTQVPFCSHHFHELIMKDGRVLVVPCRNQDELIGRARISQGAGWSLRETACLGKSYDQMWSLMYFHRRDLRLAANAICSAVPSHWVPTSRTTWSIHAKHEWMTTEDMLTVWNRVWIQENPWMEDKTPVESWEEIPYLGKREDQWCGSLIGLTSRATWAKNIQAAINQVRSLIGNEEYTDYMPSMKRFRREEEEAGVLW

With CN1/C(=C\C(=O)COC(=O)c2ccc(O)c(O)c2)C(C)(C)c2ccccc21 the IC50 [1] was 0.454 µM (active), the AC50 [2] was > 20 µM (inactive) and the IC50 [3] was 0.784 µM (active). For the same compound, the AC50 (INS1) was 6.68 µM (active).
With CC(=O)N1CCN(c2ccc([N+](=O)[O-])cc2C=C2C(=O)NC(=O)NC2=O)CC1 the AC50 [4] was 8.51 µM (active).
In the case of C=CCn1c(=S)[nH]c2scc(-c3ccc(C)o3)c2c1=O, the CC50 (Vero) was 37.2 µM (active).
With Cc1[nH]c2ccc(C(=O)OCC(=O)Nc3cccc(S(N)(=O)=O)c3)cc2c1C the IC50 [5] was > 66.6 µM (inactive) and the IC50 [6] was 0.624 µM (active).
For CCOC(=O)CSc1nc2cc(OC)ccc2cc1C#N, the EC50 [7] was > 99 µM (inactive) and the EC50 [8] was > 99 µM (inactive).
In the case of COc1ccccc1CN(Cc1nc(O)c2ccccc2n1)S(=O)(=O)c1ccc(C)cc1, the IC50 (Protein Wnt-3a) was 32.7 µM (inactive).
In the case of COc1ccc(NC(=O)Nc2nnc(-c3ccccc3SCc3ccccc3)s2)cc1, the EC50 (Melanocortin receptor 4) was > 89.2 µM (inactive).
With O=S(=O)(c1ccc2c(c1)nc(COc1ccc(Cl)cc1)n2CC1CCCO1)N1CCOCC1 (stereo not drawn) the EC50 [9] was 19.6 µM (active), the IC50 (Protein Wnt-3a) was 4.1 µM (active) and the EC50 [10] was 15.8 µM (active). For the same compound, the EC50 [11] was > 120 µM (not active).
With COc1ccc(-c2csc(C3=C(N)N(Cc4ccc(Cl)cc4)CC3=O)n2)cc1OC the EC50 [9] was > 120 µM (not active), the EC50 (Melanocortin receptor 4) was > 89.2 µM (inactive) and the EC50 [10] was 85.3 µM (active). For the same compound, the EC50 [11] was 32.9 µM (active).
In the case of COC(=O)C1=C(COc2ccccc2)NC(=O)NC1c1ccc(Br)cc1 (stereo not drawn), the IC50 [5] was > 66.6 µM (inactive) and the IC50 [6] was 15.2 µM (active).
With Cc1ccc2[nH]c(=O)c(CN(CCc3ccccc3)C(c3nnnn3Cc3ccco3)C(C)C)cc2c1 (stereo not drawn) the IC50 [12] was 20 µM (active) and the IC50 [13] was 12.1 µM (active).
For Cc1n[nH]c(O)c1C(c1ccc(-c2ccc(Cl)c(Cl)c2)o1)c1c(C)n[nH]c1O, the CC50 [14] was 15.2 µM (active), the CC50 (Vero) was 20.8 µM (active) and the CC50 [15] was 28.1 µM (active).
In the case of COc1ccc(NC2c3ccccc3C(=O)N2Cc2ccccc2Cl)cc1OC (stereo not drawn), the IC50 [16] was 1.5 µM (active).
For Cc1nc(=O)c(-c2ccccc2)c(C)n1-c1ccc(Br)cc1, the AC50 [4] was 15.6 µM (active).
For O=C(OC(c1ccccc1)c1nccc2ccccc12)c1ccccc1 (stereo not drawn), the IC50 [16] was 36.1 µM (inactive).
With CCCCC[C@@H]1C=C(C(=O)O)[C@H](c2ccc(Cl)cc2)N1S(=O)(=O)c1ccc(C)cc1 the CC50 (Vero) was > 40 µM (active) and the IC50 (Genome polyprotein) was 42.3 µM (active).
With O=C(N[C@H]1C/C=C\C[C@@H](CC(=O)N(CCO)Cc2ccccc2)C(=O)N[C@H](Cc2c[nH]c3ccccc23)COC1=O)OCC1c2ccccc2-c2ccccc21 the IC50 (Protein Wnt-3a) was 17.8 µM (active).
For C#Cc1ccc([C@H]2C=C(C(=O)NCc3nc4ccccc4[nH]3)O[C@@H](OCc3ccc(CO)cc3)C2)cc1, the IC50 [12] was 20.7 µM (active) and the IC50 [13] was 10.5 µM (active).
With COc1cc(NC(=O)Nc2nc(C(N)Cc3ccc(C(F)(F)F)cc3)cs2)cc(OC)c1OC (stereo not drawn) the EC50 (Melanocortin receptor 4) was > 89.2 µM (inactive).
In the case of COc1ccc(-c2cc(C(=O)Nc3cc(Cl)ccc3O)no2)cc1, the IC50 [17] was 2.91 µM (active).
In the case of CC(=O)O[C@]1(C(C)=O)CC[C@H]2[C@@H]3C=C(C)C4=CC(=O)CC[C@]4(C)[C@H]3CC[C@@]21C [MEGESTROL ACETATE], the AC50 [4] was 11 µM (active).
